US5753710A, “Substituted benzyloxycarbonylguanidines, a process for their preparation, their use as a medicament or diagnostic, and a medicament containing them” (Hoechst Aktiengesellschaft, priority 1995, dated 1998)
Where a name gives a salt, the structure may show the parent alone.

Molecular target: T1, Na^+ /H^+ exchanger of rabbit erythrocytes (Oryctolagus cuniculus, UniProt P23791)
T1 construct: endogenous in cells; host or cells: erythrocytes in blood of cholesterol-fed New Zealand White rabbits (Ivanovas)
T1 sequence (P23791 whole entry): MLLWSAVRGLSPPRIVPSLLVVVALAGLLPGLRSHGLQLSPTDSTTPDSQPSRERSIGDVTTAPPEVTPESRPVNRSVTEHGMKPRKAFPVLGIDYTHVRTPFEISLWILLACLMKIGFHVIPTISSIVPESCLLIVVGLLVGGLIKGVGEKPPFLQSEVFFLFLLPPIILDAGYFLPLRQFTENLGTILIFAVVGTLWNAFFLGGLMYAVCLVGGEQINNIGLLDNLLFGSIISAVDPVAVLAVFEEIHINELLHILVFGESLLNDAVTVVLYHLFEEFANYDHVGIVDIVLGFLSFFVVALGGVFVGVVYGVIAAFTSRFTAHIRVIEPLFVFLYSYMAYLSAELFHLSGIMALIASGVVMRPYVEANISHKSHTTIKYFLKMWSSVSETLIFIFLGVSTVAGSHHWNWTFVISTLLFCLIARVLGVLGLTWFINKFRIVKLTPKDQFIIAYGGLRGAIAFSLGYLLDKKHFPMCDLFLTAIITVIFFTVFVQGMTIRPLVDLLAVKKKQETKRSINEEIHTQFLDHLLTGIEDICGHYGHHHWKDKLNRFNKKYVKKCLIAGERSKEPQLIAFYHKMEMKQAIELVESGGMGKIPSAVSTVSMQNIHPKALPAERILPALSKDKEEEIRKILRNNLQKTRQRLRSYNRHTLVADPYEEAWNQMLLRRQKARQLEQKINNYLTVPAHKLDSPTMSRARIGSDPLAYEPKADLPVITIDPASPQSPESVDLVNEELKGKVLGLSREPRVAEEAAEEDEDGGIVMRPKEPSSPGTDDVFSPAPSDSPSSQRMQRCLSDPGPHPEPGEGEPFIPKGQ
Test: Inhibition of the Na^+ /H^+ exchanger of rabbit erythrocytes (amiloride-sensitive Na^+ influx, flame photometry)
Format: cell-based, rabbit (New Zealand White)
Conditions: erythrocytes of rabbits fed 2% cholesterol diet for six weeks; pH 7.4, 37° C.; hyperosmolar salt/sucrose medium
Source text: Inhibition of the Na^+ /H^+ exchanger of rabbit erythrocytes
New Zealand White rabbits (Ivanovas) received a standard diet containing 2% cholesterol for six weeks in order to activate the Na^+ /H^+ exchange and thus to be able to determine, by flame photometry, the Na^+ influx into the erythrocytes via Na^+ /H^+ exchange. The blood was removed from the aural arteries and rendered incoagulable using 25 IU of potassium heparin. A part of each sample was used for the duplicate determination of the hematocrit by means of centrifugation. Aliquots of in each case 100 μl were used for measuring the initial Na^+ content of the erythrocytes.
In order to determine the amiloride-sensitive sodium influx, 100 μl of each blood sample were in each case incubated, at pH 7.4 and 37° C., in 5 ml of a hyperosmolar salt/sucrose medium (mmol/l: 140 NaCl, 3 KCl, 150 sucrose, 0.1 ouabain, 20 tris(hydroxymethyl)aminomethane). […] The intracellular sodium content was determined by flame photometry.
The net influx of Na^+ was calculated from the difference between the initial sodium values and the sodium content of the erythrocytes following incubation. The amiloride-inhibitable sodium influx was calculated from the difference in the sodium content of the erythrocytes following incubation with and without amiloride 3×10^-4 mol/l. […]

IC50: < 1 µM
Compound: NC(N)=NC(=O)OCc1ccc(Oc2cccnc2)c(C(F)(F)F)c1 [Example 1, 4-(3-Pyridyloxy)-3-trifluoromethyl-benzyloxycarbonylguanidine, dihydrochloride]
